Source: ChEMBL document CHEMBL1201862, “PubChem BioAssay data set” (2004)
Activity calls are given as the source filed them.

Columns and labels:
[1] = target: T1, Aryl hydrocarbon receptor (Homo sapiens, UniProt P35869); experiment: Luminescence-based cell-based high throughput dose response assay for activators of the Aryl Hydrocarbon Receptor (AHR). [Related pubchem assays: 2796 (Primary screen (AHR activators in singlicate)), 2845 (Confirmation screen (AHR activators in triplicate)), 434939 (Counterscreen (PXR activators in triplicate)), 2804 (Summary (AHR activators))]; format: ADME
T1 sequence (P35869 whole entry): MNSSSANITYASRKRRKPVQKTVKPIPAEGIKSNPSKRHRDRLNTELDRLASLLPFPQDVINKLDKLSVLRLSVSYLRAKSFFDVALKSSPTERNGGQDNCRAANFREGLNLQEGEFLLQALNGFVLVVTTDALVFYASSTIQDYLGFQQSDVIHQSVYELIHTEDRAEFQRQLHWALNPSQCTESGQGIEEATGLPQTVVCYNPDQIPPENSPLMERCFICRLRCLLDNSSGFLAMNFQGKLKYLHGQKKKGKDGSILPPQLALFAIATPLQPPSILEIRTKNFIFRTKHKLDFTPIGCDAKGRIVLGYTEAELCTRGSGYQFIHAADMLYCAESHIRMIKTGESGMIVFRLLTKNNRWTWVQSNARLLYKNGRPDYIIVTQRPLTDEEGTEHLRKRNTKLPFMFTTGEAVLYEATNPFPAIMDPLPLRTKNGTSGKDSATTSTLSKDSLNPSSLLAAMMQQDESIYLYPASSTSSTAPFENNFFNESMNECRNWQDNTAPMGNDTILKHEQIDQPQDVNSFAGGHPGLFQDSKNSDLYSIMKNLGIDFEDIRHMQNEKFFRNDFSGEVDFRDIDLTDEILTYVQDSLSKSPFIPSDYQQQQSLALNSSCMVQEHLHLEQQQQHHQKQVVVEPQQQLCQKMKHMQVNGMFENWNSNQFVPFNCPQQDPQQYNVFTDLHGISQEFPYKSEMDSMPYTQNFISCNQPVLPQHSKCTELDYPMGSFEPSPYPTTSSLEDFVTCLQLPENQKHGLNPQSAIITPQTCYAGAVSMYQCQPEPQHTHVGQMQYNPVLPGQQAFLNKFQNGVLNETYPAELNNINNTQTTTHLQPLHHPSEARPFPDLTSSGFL

[2] = A Cell Based Secondary Assay To Explore Cytotoxicity of Compounds that Sensitize Mycobacterium Tuberculosis to Beta-Lactam Antibiotics.; format: functional
[3] = target: Cytochrome P450 2C9 (Homo sapiens, UniProt P11712)
[4] = target: T2, Cytochrome P450 1A2 (Homo sapiens, UniProt P05177);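 also: PubChem cytochrome P450 panel assay, CYP1A2 panel member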
T2 sequence (P05177 whole entry): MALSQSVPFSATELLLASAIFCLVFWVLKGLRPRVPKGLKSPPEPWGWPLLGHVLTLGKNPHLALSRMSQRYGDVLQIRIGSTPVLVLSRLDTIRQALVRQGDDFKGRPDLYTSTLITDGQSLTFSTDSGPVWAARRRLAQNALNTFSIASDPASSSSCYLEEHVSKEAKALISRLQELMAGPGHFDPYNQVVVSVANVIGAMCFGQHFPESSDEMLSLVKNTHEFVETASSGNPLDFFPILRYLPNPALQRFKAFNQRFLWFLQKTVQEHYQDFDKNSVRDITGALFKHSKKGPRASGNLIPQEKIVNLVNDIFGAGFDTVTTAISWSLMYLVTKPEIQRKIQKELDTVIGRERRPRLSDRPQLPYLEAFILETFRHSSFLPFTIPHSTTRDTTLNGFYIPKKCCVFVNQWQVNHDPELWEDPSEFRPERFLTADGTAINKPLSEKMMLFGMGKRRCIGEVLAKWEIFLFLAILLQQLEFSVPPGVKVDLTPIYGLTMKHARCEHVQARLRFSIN

[5] = Luminescence Cell-Based Dose Retest to Confirm Inhibitors of Cancer Stem Cells. [Related pubchem assays (depositor defined):AID2717, AID2721]; format: functional; settings: Homo sapiens
[6] = target: T3, X-box-binding protein 1 (Homo sapiens, UniProt P17861); format: functional, Cricetulus griseus;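 also: confirmatory dose-response counter-screen serving a CHOP assay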
T3 sequence (P17861 whole entry): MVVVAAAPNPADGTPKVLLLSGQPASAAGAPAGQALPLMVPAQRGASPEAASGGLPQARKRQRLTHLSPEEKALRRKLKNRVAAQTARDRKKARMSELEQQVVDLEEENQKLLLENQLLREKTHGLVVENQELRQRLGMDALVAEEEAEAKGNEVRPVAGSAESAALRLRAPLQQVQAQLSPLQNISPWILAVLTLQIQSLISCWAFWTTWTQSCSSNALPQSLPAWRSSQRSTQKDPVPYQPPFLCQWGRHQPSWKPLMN

[7] = target: T4, Corticotropin-releasing factor receptor 2/Corticotropin-releasing factor-binding protein (Homo sapiens, UniProt P24387+Q13324); experiment: activators of CRF receptor 2 with binding protein – uHTS hits, confirmation (AID 602473); format: functional; settings: read-out: EC50_Mean
T4 sequence (Q13324 whole entry): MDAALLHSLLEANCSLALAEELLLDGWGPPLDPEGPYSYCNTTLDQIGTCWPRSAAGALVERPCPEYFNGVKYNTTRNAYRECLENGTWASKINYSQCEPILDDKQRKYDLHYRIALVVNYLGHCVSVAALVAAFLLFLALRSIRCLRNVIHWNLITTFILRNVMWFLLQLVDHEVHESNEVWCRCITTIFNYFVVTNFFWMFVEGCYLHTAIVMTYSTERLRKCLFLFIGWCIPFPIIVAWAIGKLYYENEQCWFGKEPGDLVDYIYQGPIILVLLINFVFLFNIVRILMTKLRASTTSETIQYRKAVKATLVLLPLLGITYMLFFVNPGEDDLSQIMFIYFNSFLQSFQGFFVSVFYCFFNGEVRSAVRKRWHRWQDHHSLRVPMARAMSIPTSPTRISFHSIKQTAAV
T4 sequence (P24387 whole entry): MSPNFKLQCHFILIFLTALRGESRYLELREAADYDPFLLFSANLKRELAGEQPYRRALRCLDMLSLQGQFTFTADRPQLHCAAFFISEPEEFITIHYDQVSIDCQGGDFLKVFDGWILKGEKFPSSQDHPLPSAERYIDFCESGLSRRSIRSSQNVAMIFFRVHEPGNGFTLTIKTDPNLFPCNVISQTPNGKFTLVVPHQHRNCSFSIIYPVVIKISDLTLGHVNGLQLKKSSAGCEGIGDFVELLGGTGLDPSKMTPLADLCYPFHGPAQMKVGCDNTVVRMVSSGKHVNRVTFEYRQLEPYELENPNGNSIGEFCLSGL

[8] = target: E3 ubiquitin-protein ligase Mdm2 (Homo sapiens, UniProt Q00987); experiment: MDM2-luc reporter signal enhancers, multi-concentration potency testing, MDM2 ubiquitin-protein ligase inhibitor program, whole-cell format, luminescence detection, 384-well microplate (AID 1394); format: functional;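 also: MDM2 E3 inhibitors raise luminescence so EC50 is for signal enhancement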
[9] = target: T5, Polyadenylate-binding protein 1 (Homo sapiens, UniProt P11940); experiment: MLLE domain peptide-binding blockers, IC50 – biochemical, fluorescence polarization, FITC-PAM2 peptide, dose response (AID 602259); format: functional; settings: read-out: IC50_Mean
[10] = target: T5, Polyadenylate-binding protein 1; experiment: MLLE binding blockers, Cy5 peptide tracer – biochemical, fluorescence polarization, Cy5-PAM2 peptide, secondary, miRNA deadenylation inhibitor project, dose response (AID 602260); format: functional; settings: read-out: IC50_Mean
[11] = target: T6, Scavenger receptor class B member 1 (Mus musculus, UniProt Q61009); experiment: mouse SR-BI DiI-HDL uptake blockers – ldlA[mSR-BI] cells, fluorescence, cherry pick, dose response (AID 493194); format: functional, cell-based;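 also: cellular uptake of fluorescent DiI-labeled HDL measured as cell fluorescence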
T6 sequence (Q61009 whole entry): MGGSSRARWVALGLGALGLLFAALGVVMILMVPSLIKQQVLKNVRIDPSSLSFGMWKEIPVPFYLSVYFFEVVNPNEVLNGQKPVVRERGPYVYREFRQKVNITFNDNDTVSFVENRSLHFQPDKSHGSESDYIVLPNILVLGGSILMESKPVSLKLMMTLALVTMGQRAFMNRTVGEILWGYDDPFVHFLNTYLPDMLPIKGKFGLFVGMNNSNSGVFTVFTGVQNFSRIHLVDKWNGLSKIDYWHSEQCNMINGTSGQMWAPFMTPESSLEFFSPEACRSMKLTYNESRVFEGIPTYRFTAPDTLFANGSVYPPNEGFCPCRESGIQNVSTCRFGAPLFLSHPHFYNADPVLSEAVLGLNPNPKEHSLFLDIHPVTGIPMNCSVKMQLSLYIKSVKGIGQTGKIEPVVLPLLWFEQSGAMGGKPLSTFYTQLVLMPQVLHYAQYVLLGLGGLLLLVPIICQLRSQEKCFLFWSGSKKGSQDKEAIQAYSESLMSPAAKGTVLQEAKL

[12] = target: T7, Heat shock factor protein 1 (Mus musculus, UniProt P38532); experiment: decrease of HSF1-responsive luciferase luminescence – cell-based, NIH3T3, dose retest, confirmation (AID 2382); format: functional;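 also: NIH3T3 fibroblasts with HSF1-driven luciferase reporter stressed by proteasome inhibitor MG132; luminescence from HSF1-driven luciferase expression after 8 hours of MG132 stress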
T7 sequence (P38532 whole entry): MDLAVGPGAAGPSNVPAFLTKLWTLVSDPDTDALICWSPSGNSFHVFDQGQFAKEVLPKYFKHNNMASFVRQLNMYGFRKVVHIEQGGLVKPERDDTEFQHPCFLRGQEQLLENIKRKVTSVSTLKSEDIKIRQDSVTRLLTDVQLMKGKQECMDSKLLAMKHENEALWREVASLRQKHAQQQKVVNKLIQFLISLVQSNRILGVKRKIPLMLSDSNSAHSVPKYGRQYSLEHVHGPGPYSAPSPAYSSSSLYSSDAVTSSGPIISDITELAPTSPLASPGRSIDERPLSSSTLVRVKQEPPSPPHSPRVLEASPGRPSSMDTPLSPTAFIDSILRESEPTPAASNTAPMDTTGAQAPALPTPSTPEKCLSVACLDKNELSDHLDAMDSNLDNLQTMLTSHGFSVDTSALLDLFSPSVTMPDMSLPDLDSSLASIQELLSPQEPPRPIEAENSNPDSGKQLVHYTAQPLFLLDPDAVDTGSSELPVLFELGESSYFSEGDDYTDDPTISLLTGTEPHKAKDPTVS

[13] = target: Prothrombin (Homo sapiens, UniProt P00734); experiment: Thrombin 1536 HTS Dose Response Confirmation. [Related pubchem assays: 1046 (Thrombin 1536 HTS; hits were confirmed in this assay)]; format: functional
[14] = cells
[15] = test system: INS1; experiment: INS-1E survival protection against cytokine death – cell-based, luminescence, retest, dose response (AID 449756); format: functional; settings: Rattus norvegicus;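 also: cell death triggered by IL-1 beta plus TNF-alpha plus IFN-gamma mixture; protective hits raise ATP signal compared with cytokine alone wells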
[16] = NIH3T3 cell viability loss – ATP luminescence, mouse fibroblasts, counter-screen, dose response (AID 2010); format: functional, cell-based;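 also: cells exposed to compound for about 90 hours before reading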
[17] = Trypanosoma cruzi growth suppression in host cells – NIH3T3 host cells, beta-gal luminescence, confirmation (AID 2044); format: functional, cell-based;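 also: intracellular parasites grown in NIH/3T3 mouse fibroblasts as host cells; luminescent beta-galactosidase reporter signal from transgenic T. cruzi replicating inside host cells; inhibitors lower the luminescence signal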
[18] = target: T8, Bcl-2-like protein 10 (Homo sapiens, UniProt Q9HD36); experiment: Bcl-B/TR3 peptide binding disruption – biochemical, fluorescence polarization, FITC-TR3 peptide, selectivity assay for Bfl-1 inhibitor project, primary screen (AID 748);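 also: fluorescence polarization from a fluorescein-labelled TR3 peptide binding purified Bcl-B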
T8 sequence (Q9HD36 whole entry): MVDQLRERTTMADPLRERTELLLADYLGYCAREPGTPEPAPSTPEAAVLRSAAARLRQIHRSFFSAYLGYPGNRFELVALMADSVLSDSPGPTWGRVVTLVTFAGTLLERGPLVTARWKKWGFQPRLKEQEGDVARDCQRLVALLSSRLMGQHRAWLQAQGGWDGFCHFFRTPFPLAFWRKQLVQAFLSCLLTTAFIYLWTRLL

T5 sequence (P11940 whole entry, the tested form may be a part): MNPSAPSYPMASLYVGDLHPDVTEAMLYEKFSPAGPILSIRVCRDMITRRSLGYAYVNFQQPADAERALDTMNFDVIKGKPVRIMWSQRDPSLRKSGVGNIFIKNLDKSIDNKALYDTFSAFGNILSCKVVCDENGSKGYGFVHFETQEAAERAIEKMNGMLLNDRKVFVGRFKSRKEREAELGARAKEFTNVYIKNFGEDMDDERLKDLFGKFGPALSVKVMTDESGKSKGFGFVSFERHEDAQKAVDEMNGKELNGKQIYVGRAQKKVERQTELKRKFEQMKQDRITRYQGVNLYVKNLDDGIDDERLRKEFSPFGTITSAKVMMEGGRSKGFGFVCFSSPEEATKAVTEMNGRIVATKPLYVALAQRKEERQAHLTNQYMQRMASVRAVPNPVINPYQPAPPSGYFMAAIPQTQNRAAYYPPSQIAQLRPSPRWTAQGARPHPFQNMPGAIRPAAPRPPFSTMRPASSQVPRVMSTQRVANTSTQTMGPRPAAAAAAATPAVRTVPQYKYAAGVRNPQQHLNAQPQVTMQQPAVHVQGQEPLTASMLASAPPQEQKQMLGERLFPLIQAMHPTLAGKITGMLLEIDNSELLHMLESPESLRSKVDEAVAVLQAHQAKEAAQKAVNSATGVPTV
Chain of Cytochrome P450 2C9 (P11712 whole entry): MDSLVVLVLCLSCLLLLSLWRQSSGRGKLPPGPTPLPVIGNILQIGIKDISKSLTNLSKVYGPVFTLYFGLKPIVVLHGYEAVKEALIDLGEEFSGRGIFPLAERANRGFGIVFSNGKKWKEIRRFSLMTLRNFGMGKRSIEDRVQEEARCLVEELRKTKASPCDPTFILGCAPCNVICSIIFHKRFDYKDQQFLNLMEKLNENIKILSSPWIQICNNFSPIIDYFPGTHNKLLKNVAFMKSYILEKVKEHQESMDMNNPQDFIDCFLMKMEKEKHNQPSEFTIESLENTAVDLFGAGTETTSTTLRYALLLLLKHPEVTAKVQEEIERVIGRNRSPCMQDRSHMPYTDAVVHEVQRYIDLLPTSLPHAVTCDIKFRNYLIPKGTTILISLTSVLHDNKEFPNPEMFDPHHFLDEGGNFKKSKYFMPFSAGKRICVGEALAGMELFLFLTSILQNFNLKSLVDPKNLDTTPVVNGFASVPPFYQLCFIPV
Chain of E3 ubiquitin-protein ligase Mdm2 (Q00987 whole entry, the tested form may be a part): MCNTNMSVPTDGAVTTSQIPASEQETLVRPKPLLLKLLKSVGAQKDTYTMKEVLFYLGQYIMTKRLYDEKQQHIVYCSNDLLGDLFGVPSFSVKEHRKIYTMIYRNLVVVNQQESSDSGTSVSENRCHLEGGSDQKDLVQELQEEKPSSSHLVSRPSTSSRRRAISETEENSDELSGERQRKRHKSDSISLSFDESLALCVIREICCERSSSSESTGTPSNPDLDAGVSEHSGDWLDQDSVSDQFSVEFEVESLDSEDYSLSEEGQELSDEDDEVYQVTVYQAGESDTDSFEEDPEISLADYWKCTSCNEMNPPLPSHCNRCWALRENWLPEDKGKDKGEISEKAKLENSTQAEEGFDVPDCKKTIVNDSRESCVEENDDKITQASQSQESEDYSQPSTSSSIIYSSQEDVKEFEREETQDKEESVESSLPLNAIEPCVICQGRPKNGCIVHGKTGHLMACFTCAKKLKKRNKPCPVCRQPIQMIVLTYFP

Structure (SMILES): CCCNc1nc(Cl)nc(Nc2ccc(Cl)cc2)n1
- EC50 [1]: 3.38 µM (active)

Structure (SMILES): CC(=O)Nc1ccc(Nc2ncc([N+](=O)[O-])c(Nc3ccc(NC(C)=O)cc3)n2)cc1
- CC50 [2]: > 40 µM (active)
- AC50 [3]: 0.355 µM (inconclusive)
- AC50 [4]: 22.4 µM (inconclusive)

Structure (SMILES): C=CCNCCCOc1ccc(Cl)cc1C(C)(C)C
- CC50 [2]: 28.8 µM (active)
- AC50 [5]: 16.1 µM (active)

Structure (SMILES): COc1cc(/C=C(/C#N)c2nc(O)c3ccccc3n2)ccc1O
- Absolute IC50 (XBP1) [6]: 10 µM
- EC50 [7]: > 53 µM (inactive)

Structure (SMILES): Oc1nc2cc3c(cc2cc1CN(Cc1nnnn1CC1CCCO1)C1CCCC1)OCO3 (centres undefined)
- EC50 [8]: 47.2 µM (not active)
- IC50 [9]: > 66 µM (inactive)
- IC50 [10]: > 66 µM (inactive)

Structure (SMILES): CCOc1ccc(C2=C/C(=C/c3cccnc3)C(=O)O2)cc1
- Absolute IC50 (XBP1) [6]: 10 µM

Structure (SMILES): COc1cc(/C=N/NC(=O)c2cccnc2)cc2c1OCO2
- EC50 [1]: 6.16 µM (active)

Structure (SMILES): Nc1ccc(Nc2nc(-c3cccs3)cs2)cc1
- AC50 [11]: 8.4 µM (active)

Structure (SMILES): COc1cc(/C=C/c2nc(N)nc(-c3ccccc3O)n2)cc(OC)c1OC
- Absolute IC50 (XBP1) [6]: 10 µM
- EC50 [12]: 36.1 µM (active)

Structure (SMILES): O=C(CN(C(=O)Cn1nnc(-c2ccc(F)cc2)n1)C1CCCC1)NC1CCCC1
- AC50 [11]: 0.184 µM (active)

Structure (SMILES): Cc1nnc(SCc2nnc(-c3ccccc3Br)o2)n1-c1ccccc1
- IC50 [13]: > 50 µM (not active)

Structure (SMILES): COc1ccc2c(c1)N(C)/C(=C/c1cccc[n+]1C)S2
- EC50 [14]: 0.029 µM (active)
- AC50 [15]: 1.13 µM (active)
- EC50 [16]: > 60 µM (not active)
- EC50 [17]: < 0.1 µM (active)

Structure (SMILES): CC(=O)c1c(OC(=O)c2ccco2)c2ccccc2n1C
- IC50 [13]: 3.99 µM (active)

Structure (SMILES): CN1CCC(OC(=O)c2ccc(Br)cc2)CC1
- EC50 [14]: 0.029 µM (active)
- EC50 [16]: > 60 µM (not active)
- EC50 [17]: < 0.1 µM (active)

Structure (SMILES): Fc1ccccc1N1CCN(C2CCCN(Cc3cccc(C(F)(F)F)c3)C2)CC1 (centres undefined)
- EC50 [14]: 0.656 µM (active)
- EC50 [16]: > 60 µM (not active)
- EC50 [17]: < 0.1 µM (active)

Structure (SMILES): COc1ccc2sc(-c3ccc(N(C)C)cc3)c(C#CC(C)(C)O)c2c1
- AC50 [11]: 2.73 µM (active)

Structure (SMILES): Brc1ccc2ncnc(Nc3ccc(N4CCOCC4)cc3)c2c1
- EC50 [16]: > 60 µM (not active)
- EC50 [1]: 1.14 µM (active)
- EC50 [17]: 0.92 µM (active)
- IC50 [18]: > 50 µM (inactive)
